# Measurements: patent publication US20140057954A1, “CHEMICAL COMPOSITION” (FOREST LABORATORIES HOLDINGS LTD., priority 2012, published 2014)
# Legend:
# [1] = Crossover trial of nebivolol exposure, alone versus in free combination with valsartan, once daily for 7 days; assay type: in vivo, human
# Experimental: […], 3-way crossover trial was performed in healthy subjects to assess the pharmacokinetic (pK) and pharmacodynamic (pD) impact of administered valsartan on nebivolol.
# 28 subjects aged 19-45 were randomized to the following once-daily treatments for 7 days under fasted conditions: (A) nebivolol alone (20 mg tablet) and (B) concomitant nebivolol 20 mg+valsartan 320 mg in free combination. Blood samples were collected from each subject for pK analysis at the following time points: 0 hour (predose) on Days 1, 14, and 27 and at 0 hour (predose) and 1, 2, 4, 6, 10, 16, 24, 36, and 48 hours postdose on Days 7, 20, and 33.
# The bioanalytical procedure used to measure plasma concentrations of nebivolol was a LC/MS/MS (liquid chromatography/tandem mass spectrometry) method.
# Among the pK parameters measured were AUC0-τ,ss (area under the plasma concentration versus time curve from time 0 to the dosing interval, τ, at steady state); Cdmax,ss (maximum plasma drug concentration at steady state); Tmax,ss (time of maximum plasma drug concentration following drug administration at steady state); Cmin,ss minimum plasma drug concentration at steady state); Cav,ss (average plasma drug concentration at steady state); and CL/F (apparent total clearance from plasma after oral administration). These pK parameters were derived from plasma concentrations using noncompartmental analysis with the software program SAS (version 9.1.3). In addition, the 2-sided 90% confidence interval (CI) for the ratio of geometric means of Cmax and AUC0-τ,ss between nebivolol coadministered with valsartan and nebivolol alone were constructed.
# [2] = test system: patients with mild to moderate hypertension; test: Population PK/PD analysis (Emax model) of nebivolol plasma concentration versus mean sitting DBP; assay type: in vivo, human
# Experimental: The study involved first determining the relationship between nebivolol plasma concentration and the therapeutic diastolic blood pressure (DBP)-reducing effect by nebivolol when administered alone. A population PK/PD analysis was performed to assess the relationship between nebivolol plasma concentration and its therapeutic DBP-reducing effect. The analysis utilized PK/PD data that was collected from patients with mild to moderate hypertension following a Phase 3, double-blind, placebo-controlled, multicenter study. During the study, patients were randomized to 7 parallel treatment arms wherein the patient received either a placebo or any of 6 different doses of nebivolol (between 1.25 and 40 mg). The patients were also stratified across all treatment arms by covariates of race (African American vs non-African American), age (<65 vs≧65 years), gender, diabetes status (history of diabetes mellitus vs no history of diabetes mellitus), and by metabolism of nebivolol (PM vs EM of CYP 2D6). Blood pressure data was collected from each patient initially and at days 28 and 84 of treatment. The study results were refined and updated using nonlinear mixed-effects modeling (NONMEM) software, version VII, with first-order conditional estimation/interaction method. […] Moreover, the EC50 (half maximal effective concentration) was determined.
# [3] = coadministered with valsartan versus nebivolol alone
smiles,measurement,setting,value
OC(CNCC(O)C1CCc2cc(F)ccc2O1)C1CCc2cc(F)ccc2O1 (centres unmarked) [nebivolol],decrease in mean nebivolol AUC0-τ,[1]; [3],15-20%
same,decrease in mean nebivolol Cmax,[1]; [3],40-50%
same,AUC,"[1]; human, plasma, oral, 20 mg nebivolol once daily for 7 days, alone or with 320 mg valsartan, healthy subjects, fasted, steady state, read-out: nebivolol AUC0-τ, Arithmetic Mean",41.5 ng·h/mL
same,Cmax,"[1]; human, plasma, oral, 20 mg nebivolol once daily for 7 days, alone or with 320 mg valsartan, healthy subjects, fasted, steady state, read-out: nebivolol Cmax, Arithmetic Mean",8.02 ng/mL
same,"Cmax and CSS,max reduction",[1]; in the presence of valsartan,approximately 50%
same,"mean reduction in nebivolol Cavg and CSS,avg",[1]; in the presence of valsartan,~20%
same,EC50,"[2]; Homo sapiens, Emax model, mean sitting DBP, Phase 3 data, nebivolol 1.25-40 mg, read-out: EC50 estimate of d,l-nebivolol concentrations (DBP PK/PD model)",0.0179 ng/mL
same,Emax in DBP reduction,[2]; after correction for the placebo effect,approximately 5 mm Hg
